Data as given in patent publication US11274324B2, “Engineering polyketide synthase in cyanobacteria” (The Regents of the University of California, priority 2019, dated 2022).

Columns and labels:
[1] = test system: S. elongatus AMC2302 wild type; assay: Cell toxicity analysis of precursors; assay type: cell-based, Synechococcus elongatus; conditions: final concentration of 1 mM; preliminary analyses, FIG. 12A
Experimental: FIGS. 12A-12B show cell toxicity analysis to determine the optimal concentration of precursors. FIG. 12A is an image showing cell growth after addition of substrate. Methylmalonate (me-malonate) and propionate were added to S. elongatus AMC2302 wild type at different concentrations: 0, 1, 5, 10, 15, and 20 mM. Each column is a duplicate of the experiment. FIG. 12B is an image showing cell growth after addition of substrate. n-octanol was added to S. elongatus AMC2302 wild type at different concentrations: 0.125, 0.25, 0.5, 1, 2, and 0 mM. Each column is a duplicate (FIG. 12A), or triplicate of the experiment (FIG. 12B).
While module I was constitutively expressed from Peonn (Elledge and Davis et al. 1989; Taton et al. 2014), the expression and activation of module III depended on the expression of the T7 RNAP and Sfp placed in downstream PconII and under the translational control of theophylline inducible riboswitches. The biosynthesis of methylmalonyl-CoA required methylmalonate (module IA) or propionate (module IC) as substrates, and the transesterification of the ACP-bound MBFA required an alcohol substrate (n-octanol) to produce MBE as the final product. Cell toxicity analysis with methylmalonate, propionate and n-octanol were carried out to determine the optimal concentration of these precursors. (FIG. 12). […]

S. elongatus = conditions: at low concentrations; previously reported; cited from earlier work
[2] = test system: theophylline dependent riboswitch F; assay: Inducible T7 expression system, PT7-YFP reporter fluorescence; assay type: cell-based, S. elongatus; conditions: mutated PconII*
Experimental: (§1) FIGS. 2A-2B show characterization of inducible T7 expression systems in S. elongatus at different theophylline concentrations. The expression of the T7RNAP was driven by a mutated PconII* and was translationally controlled by riboswitch B (FIG. 2A) or riboswitch F (FIG. 2B). YFP fluorescence served as an easily readable output. Three independent strains were analyzed for each construct and error bars indicate standard deviations of the replicates.
(§2) To establish a functional and inducible T7RNAP based expression system for S. elongatus, devices were constructed where the transcription of the T7 RNA polymerase was driven by the conII promoter and its translation was controlled by either the theophylline dependent riboswitches B or F (Ma et al 2014). […] Thus, the potentiality of these regulatory devices when using a TRNAP expression system in S. elongatus was studied. Initially, the inventors constructed a reporter device in which the YFP reporter gene was driven by the PT7 and the T7RNAP expression was left under the control of a PconII-riboswitch (B or F). Both the T7RNAP expression systems and the reporter PT7-YFP were independently integrated at NS1 and NS2 of S. elongatus chromosome (Clerico et al 2007).

[3] = test system: theophylline dependent riboswitch B; assay: as above; assay type: cell-based, S. elongatus; conditions: mutated PconII*
Experimental: as §1, §2

[4] = test system: S. elongatus recombinant strain MatB F pfm (module IIA); assay: Bioconversion assay, MBE production at different theophylline concentrations; assay type: cell-based, Synechococcus elongatus
Experimental: FIGS. 6A-6B show MBE biosynthesis by recombinant MatB F pfm and MatB B6 pfm cyanobacterial strains induced with different theophylline concentrations.
The two strains containing module IA (MatB) for methylmalonyl-CoA biosynthesis, modules IIA or IIB for T7 RNAP and Sfp expression, and module III for the Mas and accessory enzyme expression were analyzed. In addition, strains without the module III and a wild type strain were comprised as negative controls. For the bioconversion assays the strains were induced with theophylline 2 mM and 24 h later supplemented with 10 mM methylmalonate, 0.25 mM n-octanol and labeled with 2 μCi ^14C-acetate (58.9 mCi/mmol, PerkinElmer). After addition of the precursors the cultures were grown for 48 h, the in vivo synthesis of MBE was analyzed on total lipid extractions from each culture by TLC fractionation and autoradiography (FIGS. 3A-3B). Additional control bioconversion assays were carried out in the absence of either or both precursors, and labeled MBE synthesized by the E. coli strain RQ1 used as a standard (Menendez-Bravo et al. 2014). […]

Row | SMILES | toxicity for S. elongatus [1] | toxicity for S. elongatus (S. elongatus) | concentration of theophylline needed to reach maximal fluorescence [2] | concentration of theophylline needed to reach maximal fluorescence [3] | effect on cell viability ([4]; 8 mM theophylline) | theophylline concentration reaching high levels of MBE production ([4]; module IIA, methylmalonate 10 mM, n-octanol 0.25 mM)
1 | CCC(=O)O [propionate] | not toxic | toxic | – | – | – | –
2 | Cn1c(=O)c2[nH]cnc2n(C)c1=O [theophylline] | – | – | 1 mM | 2 mM | detrimental to cell viability | 4 mM
